# In patent publication US8222279B2, “Small molecule insulin mimetics absent quinones” (Duke University, priority 2006, dated 2012):
# Experiments:
# [1] = tested on: differentiated PC12 neurons; test: Protection of differentiated PC12 neurons from apoptotic cell death induced by NGF withdrawal; type: cell-based; settings: 100 ng/ml NGF; 48 h; control cells 64±1%
# Procedure: A library of asterriquinones was screened using a 96-well ELISA assay that detects phosphorylated TrkA, the NGF receptor. We identified many compounds from this library that activated TrkA in CHO cells. The library was also screened for dose-dependent cytotoxicity in these cells. From these assays, we selected two compounds 1H5 and 5E5 for further study based on NGF agonist activity and low toxicity. […] 1H5 at 30 μM has 49±4% the effect of 100 ng/ml NGF. […] Despite this, 1H5 can protect differentiated PC12 neurons from apoptotic cell death induced by NGF withdrawal for 48 h. Cell death is 64±1% in control PC12 cells, 52±3% in cell treated with 30 μM 1H5, and 18±6% in cells treated with 100 ng/ml NGF. […] 5E5 at 30 μM has 212±11% the effect of 100 ng/ml NGF on CHO-Trk cells. It is non-toxic at concentrations up to 10 μM. […] 5E5 also causes phosphorylation of FRS2/SNT, a differentiation-specific target of NGF in neurons and PC12 cells (2.7-fold v.s. NGF).
# human insulin receptor = target: T1, human insulin receptor (Homo sapiens, UniProt P06213); test: Insulin receptor autophosphorylation (phosphotyrosines 1162/1163) immunoblot in CHO-IR cells; type: cell-based; settings: increasing concentrations, 10 min at 37° C., immunoblot not shown
# T1 construct: expressed in transfected cells; host or cells: CHO-IR (Chinese hamster ovary cells)
# T1 sequence (P06213 763-1382 limits assumed): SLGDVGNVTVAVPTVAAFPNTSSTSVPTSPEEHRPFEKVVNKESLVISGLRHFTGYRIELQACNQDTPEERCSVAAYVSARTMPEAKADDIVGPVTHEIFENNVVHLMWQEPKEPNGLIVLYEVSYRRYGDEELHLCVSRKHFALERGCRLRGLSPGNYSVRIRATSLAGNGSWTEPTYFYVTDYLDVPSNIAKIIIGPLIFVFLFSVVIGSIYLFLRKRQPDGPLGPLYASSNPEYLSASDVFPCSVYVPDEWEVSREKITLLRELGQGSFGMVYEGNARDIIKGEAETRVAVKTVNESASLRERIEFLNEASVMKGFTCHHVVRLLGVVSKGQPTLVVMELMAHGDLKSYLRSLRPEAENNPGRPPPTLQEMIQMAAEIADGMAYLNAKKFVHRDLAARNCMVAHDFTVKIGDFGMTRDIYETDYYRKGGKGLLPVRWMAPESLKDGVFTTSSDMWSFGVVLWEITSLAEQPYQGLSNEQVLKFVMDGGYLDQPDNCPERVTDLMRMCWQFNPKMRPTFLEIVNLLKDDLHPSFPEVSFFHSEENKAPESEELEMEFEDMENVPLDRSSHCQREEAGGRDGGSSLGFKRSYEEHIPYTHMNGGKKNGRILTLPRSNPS
# T1 sequence (P06213 28-758 partner limits assumed): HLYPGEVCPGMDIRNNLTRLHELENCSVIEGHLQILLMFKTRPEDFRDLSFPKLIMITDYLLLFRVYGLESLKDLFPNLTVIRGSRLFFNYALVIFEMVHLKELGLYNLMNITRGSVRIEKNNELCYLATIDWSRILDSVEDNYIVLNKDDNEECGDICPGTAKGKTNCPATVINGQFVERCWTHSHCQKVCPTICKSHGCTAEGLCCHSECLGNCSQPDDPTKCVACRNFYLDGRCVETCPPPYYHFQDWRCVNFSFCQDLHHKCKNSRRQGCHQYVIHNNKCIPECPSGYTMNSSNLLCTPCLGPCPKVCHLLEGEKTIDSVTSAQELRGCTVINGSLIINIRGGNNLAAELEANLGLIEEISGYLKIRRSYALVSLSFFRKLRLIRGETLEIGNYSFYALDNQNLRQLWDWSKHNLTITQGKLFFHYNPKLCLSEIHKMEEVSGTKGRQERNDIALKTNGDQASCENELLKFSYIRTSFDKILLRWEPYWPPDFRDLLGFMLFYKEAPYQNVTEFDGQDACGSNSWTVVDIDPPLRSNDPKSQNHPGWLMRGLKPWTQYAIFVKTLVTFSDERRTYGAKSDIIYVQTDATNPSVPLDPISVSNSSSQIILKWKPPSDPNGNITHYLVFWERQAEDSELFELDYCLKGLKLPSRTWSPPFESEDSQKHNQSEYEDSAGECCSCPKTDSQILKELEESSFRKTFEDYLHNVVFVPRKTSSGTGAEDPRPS
# From the text: These compounds were examined in a cell-based assay for their ability to mimic the action of insulin. In this case, Chinese hamster ovary (CHO) cells stably transfected with a gene for human insulin receptor and expressing it on their surface were used. CHO-IR cells were stimulated with increasing concentrations of insulin, LDIV122 (same as 198), LDIV148 (same as 196), ZL-196 (an insulin mimic that includes a quinone), and LDIV99 (same as 194). Whole-cell lysates were immunoblotted with antibodies to phosphotyrosines 1162 and 1163 that lie on the activation loop in the beta-subunit of the insulin receptor.
# Materials. Antibodies to tyrosine phosphorylated IR(Tyr1162/Tyr1163) are from BioSource (Camarillo, Calif.).
# CHO-IR cells (Chinese hamster ovary cells overexpressing the β isoform insulin receptor) were cultured in Ham's F12 supplemented with 10% FCS, 2 mM glutamax and gentamicin at 37° C. in a 5% CO2 atmosphere. Cells were serum starved for 72 h in 12-well plates, then stimulated with increasing concentrations of insulin or compounds in KRP-Hepes for 10 min at 37° C. The cells are washed with ice-cold phosphate-buffered saline and solubilized in 2×SDS-sample buffer (50 mM Tris-HCl, pH 7.4, 5% glycerol, 2% SDS, 0.005% bromophenol blue) containing 2 mM sodium orthovanadate and 200 mM sodium fluoride. […]
Compound,Cell death [1] [%],Autophosphorylation of the insulin receptor (human insulin receptor)
"NGF: nerve growth factor, ligand of TrkA, used as reference at 100 ng/ml",18±6,–
"CC(C)=CCc1cccc2c(-c3c(O)c(=O)cc(CO)n3C)c[nH]c12 [LDIV148, 3-Hydroxy-6-hydroxymethyl-1-methyl-2-[7-(3-methyl-but-2-enyl)-1H-indol-3-yl]-pyridin-4-one]",–,dose-dependent autophosphorylation
"CC(C)=CCc1cccc2c(-c3oc(CO)cc(=O)c3O)c[nH]c12 [LDIV99, 3-Hydroxy-6-hydroxymethyl-2-[7-(3-methyl-but-2-enyl)-1H-indol-3-yl]-pyran-4-one]",–,dose-dependent autophosphorylation
